What all share (type): biochemical
One assay addresses T1, JAK1 (Homo sapiens, UniProt P23458).
T1 construct: purchased Invitrogen
Briefly: JAK1 enzyme inhibition test (LANCE method). The conditions noted are these: 1 μM test compound; for inhibition at 1 µM: read-out: JAK1 enzyme inhibitory activity (%, 1 μM). On the procedure:
(§1) JAK1 enzyme inhibitory activity of test compounds was measured by the LANCE method (PerkinElmer). First, a test compound diluted with assay buffer (50 mM HEPES (pH 7.5), 10 mM MgCl2, 1 mM EGTA, 2 mM DTT, 0.01% Tween20, 0.01% BSA) was added to a 384-well plate by 2 μL each. Then, a JAK1 (Invitrogen) solution and a fluorescence-labeled peptide substrate (ULight-JAK1, PerkinElmer) solution diluted with assay buffer to 187.5 ng/mL and 300 nM, respectively, were added by 2 μL each. Then, an enzyme reaction was started by adding 2 μL each of ATP solution prepared with assay buffer to 150 μM. After the reaction at room temperature for 1 hr, Detection Buffer (PerkinElmer) prepared to contain 20 mM EDTA, 4 nM europium-labeled anti-phosphotyrosine antibody (PerkinElmer) was added by 6 μL each. After standing at room temperature for 1 hr, fluorescence intensity (excitation wavelength 340 nm, fluorescence wavelength 665 nm, delay time 100 microseconds) was measured by a plate reader, Envision (PerkinElmer). The inhibitory activity of each compound was calculated as a relative activity value to the fluorescence intensity of a well free of enzyme as 100% inhibition.
(Time-resolved FRET reads energy transfer from a long-lived donor to a nearby acceptor.)

The target in another assay is T2, JAK2 (Homo sapiens, UniProt O60674).
T2 construct: purchased Invitrogen
T2 sequence (O60674 whole entry): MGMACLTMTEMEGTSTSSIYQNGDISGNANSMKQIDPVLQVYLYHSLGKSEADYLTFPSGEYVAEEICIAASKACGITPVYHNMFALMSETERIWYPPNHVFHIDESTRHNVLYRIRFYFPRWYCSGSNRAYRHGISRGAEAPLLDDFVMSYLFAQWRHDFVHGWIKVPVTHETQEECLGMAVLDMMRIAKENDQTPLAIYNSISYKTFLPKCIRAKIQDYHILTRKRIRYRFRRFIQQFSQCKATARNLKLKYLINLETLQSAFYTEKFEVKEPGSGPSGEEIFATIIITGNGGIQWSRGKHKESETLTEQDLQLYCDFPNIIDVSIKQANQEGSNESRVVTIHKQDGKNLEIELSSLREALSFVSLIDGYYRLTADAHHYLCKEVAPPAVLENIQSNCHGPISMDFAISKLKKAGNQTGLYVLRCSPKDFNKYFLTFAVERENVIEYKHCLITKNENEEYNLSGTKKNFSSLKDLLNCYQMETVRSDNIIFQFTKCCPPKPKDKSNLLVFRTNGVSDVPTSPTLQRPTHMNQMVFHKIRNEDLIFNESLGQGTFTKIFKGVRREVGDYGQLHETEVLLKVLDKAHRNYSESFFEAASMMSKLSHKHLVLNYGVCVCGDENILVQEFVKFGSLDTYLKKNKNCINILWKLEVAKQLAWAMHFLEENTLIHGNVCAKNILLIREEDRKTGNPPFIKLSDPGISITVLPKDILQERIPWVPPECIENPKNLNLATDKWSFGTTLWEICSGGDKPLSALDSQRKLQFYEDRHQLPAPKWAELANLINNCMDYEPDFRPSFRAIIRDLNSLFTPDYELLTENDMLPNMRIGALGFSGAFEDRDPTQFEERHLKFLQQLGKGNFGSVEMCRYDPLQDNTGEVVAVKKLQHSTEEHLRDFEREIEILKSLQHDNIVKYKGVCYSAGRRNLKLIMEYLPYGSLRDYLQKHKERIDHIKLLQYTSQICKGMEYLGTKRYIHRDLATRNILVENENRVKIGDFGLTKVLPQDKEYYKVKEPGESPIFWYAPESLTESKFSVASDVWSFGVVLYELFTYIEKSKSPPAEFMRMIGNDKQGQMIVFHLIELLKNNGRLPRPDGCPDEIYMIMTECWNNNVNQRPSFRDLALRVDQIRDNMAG
Put plainly: JAK2 enzyme inhibition test (LANCE method). The conditions noted are these: 1 μM test compound; for inhibition at 1 µM: read-out: JAK2 enzyme inhibitory activity (%, 1 μM). The procedure: as §1, with “JAK2 enzyme” for “JAK1 enzyme”, “a JAK2” for “a JAK1”, “to 6” for “to 187.5”, “to 45” for “to 150”

Another assay deals with T3, JAK3 (Homo sapiens, UniProt P52333).
T3 construct: purchased Invitrogen
T3 sequence (P52333 1-1124): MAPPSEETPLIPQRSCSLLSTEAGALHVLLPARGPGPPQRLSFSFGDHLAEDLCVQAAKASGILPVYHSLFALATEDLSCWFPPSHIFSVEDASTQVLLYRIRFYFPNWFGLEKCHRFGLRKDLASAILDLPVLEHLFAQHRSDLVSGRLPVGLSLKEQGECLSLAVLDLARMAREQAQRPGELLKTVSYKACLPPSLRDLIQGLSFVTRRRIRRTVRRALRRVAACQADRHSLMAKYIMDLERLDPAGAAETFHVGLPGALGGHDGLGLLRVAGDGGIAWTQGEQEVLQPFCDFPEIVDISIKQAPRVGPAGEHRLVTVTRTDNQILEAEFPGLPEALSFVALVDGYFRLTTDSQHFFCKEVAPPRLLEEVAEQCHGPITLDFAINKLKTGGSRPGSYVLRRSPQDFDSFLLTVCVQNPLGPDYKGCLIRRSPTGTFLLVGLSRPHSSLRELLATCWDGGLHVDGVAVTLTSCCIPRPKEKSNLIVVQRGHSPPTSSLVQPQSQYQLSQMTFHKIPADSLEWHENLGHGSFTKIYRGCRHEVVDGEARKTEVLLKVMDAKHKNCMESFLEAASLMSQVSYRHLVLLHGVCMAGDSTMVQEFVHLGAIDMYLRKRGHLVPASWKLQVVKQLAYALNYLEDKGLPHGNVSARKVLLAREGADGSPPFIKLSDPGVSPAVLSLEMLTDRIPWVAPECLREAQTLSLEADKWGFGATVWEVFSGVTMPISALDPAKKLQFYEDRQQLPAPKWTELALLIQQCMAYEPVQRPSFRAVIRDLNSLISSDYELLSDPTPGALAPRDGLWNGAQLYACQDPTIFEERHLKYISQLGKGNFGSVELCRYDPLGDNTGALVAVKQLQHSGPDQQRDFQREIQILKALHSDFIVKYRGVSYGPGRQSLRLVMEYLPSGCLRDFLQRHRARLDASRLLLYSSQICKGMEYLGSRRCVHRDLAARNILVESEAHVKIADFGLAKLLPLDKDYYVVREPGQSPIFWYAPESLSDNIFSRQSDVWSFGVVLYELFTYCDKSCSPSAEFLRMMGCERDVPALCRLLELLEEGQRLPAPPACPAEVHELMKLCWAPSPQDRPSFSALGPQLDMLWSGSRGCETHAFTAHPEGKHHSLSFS
Briefly: JAK3 enzyme inhibition test (LANCE method). The conditions noted are these: 1 μM test compound; for inhibition at 1 µM: read-out: JAK3 enzyme inhibitory activity (%, 1 μM). The procedure:
as §1, with “JAK3 enzyme” for “JAK1 enzyme”, “a JAK3” for “a JAK1”, “to 12” for “to 187.5”, “to 15” for “to 150”

The target of the next assay is T4, TYK2 (Homo sapiens, UniProt P29597).
T4 construct: purchased Invitrogen
T4 sequence (P29597 whole entry): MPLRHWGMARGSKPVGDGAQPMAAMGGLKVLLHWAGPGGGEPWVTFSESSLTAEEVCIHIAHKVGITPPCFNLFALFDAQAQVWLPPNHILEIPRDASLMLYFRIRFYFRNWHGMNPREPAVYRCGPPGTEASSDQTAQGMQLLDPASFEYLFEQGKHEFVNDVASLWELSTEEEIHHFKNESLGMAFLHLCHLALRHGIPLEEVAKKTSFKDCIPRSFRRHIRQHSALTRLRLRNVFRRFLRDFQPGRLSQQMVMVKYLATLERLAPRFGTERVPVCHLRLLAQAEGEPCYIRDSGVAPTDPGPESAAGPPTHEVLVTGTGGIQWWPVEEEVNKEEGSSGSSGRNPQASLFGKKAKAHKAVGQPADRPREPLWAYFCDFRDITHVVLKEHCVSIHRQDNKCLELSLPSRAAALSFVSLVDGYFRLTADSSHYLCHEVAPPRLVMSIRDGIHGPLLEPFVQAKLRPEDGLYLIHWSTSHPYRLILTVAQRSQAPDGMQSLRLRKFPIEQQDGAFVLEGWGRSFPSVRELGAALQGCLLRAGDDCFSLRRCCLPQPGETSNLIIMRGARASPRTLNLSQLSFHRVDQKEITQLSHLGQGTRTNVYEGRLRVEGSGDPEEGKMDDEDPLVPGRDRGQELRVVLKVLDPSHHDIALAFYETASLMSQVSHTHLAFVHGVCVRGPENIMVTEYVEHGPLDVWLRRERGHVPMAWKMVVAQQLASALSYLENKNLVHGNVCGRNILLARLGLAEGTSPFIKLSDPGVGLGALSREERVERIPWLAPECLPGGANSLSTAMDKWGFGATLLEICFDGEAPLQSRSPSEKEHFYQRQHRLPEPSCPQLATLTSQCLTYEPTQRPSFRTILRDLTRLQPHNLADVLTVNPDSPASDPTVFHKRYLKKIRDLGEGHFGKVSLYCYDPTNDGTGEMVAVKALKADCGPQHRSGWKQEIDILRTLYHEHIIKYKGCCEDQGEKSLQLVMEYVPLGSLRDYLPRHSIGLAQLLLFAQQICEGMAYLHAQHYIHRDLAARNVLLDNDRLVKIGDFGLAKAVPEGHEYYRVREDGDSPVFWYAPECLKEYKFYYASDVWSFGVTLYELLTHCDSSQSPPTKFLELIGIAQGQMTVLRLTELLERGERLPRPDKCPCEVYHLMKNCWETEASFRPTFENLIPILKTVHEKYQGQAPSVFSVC
Briefly: TYK2 enzyme inhibition test (LANCE method). The conditions noted are these: 1 μM test compound; for inhibition at 1 µM: read-out: TYK2 enzyme inhibitory activity (%, 1 μM). The procedure: as §1, with “TYK2 enzyme” for “JAK1 enzyme”, “a TYK2” for “a JAK1”, “to 375” for “to 187.5”, “to 30” for “to 150”

Structures are written as SMILES.

The source of these data is patent US9637483B2, “Heterocyclic compound” (TAKEDA PHARMACEUTICAL COMPANY LIMITED, priority 2013, dated 2017).

T1 sequence (P23458 whole entry): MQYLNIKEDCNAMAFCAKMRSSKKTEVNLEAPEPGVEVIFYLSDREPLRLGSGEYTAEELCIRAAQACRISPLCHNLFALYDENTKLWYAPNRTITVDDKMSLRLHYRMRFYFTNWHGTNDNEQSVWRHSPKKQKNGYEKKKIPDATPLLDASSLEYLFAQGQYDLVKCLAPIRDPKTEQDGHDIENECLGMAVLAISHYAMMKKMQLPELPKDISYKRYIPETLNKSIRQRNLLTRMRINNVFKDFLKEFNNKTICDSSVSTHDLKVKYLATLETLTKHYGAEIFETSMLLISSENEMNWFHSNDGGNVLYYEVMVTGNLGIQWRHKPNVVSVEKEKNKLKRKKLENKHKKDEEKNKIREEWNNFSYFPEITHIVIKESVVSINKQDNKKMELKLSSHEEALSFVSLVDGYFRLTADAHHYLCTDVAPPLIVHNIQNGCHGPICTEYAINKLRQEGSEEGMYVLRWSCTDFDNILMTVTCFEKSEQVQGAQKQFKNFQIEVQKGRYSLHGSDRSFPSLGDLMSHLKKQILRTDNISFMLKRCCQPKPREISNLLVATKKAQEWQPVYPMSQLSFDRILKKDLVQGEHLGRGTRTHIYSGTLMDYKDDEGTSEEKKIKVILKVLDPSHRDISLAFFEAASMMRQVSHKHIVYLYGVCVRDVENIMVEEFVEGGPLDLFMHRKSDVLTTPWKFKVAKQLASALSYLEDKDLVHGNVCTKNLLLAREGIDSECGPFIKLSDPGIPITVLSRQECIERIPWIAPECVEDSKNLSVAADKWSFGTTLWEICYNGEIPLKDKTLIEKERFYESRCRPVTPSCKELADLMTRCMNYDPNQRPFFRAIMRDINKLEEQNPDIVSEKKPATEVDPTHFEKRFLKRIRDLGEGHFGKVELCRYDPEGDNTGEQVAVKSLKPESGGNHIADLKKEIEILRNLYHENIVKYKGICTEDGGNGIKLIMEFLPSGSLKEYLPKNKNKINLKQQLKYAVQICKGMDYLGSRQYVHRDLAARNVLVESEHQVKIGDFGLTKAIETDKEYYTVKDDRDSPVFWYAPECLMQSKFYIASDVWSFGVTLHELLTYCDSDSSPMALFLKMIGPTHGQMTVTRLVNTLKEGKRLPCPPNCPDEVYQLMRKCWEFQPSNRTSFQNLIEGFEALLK

Turning to `CC(C)[C@H](C)n1cc(-c2cc(C3(O)CCC(F)(F)CC3)n(C)n2)c2[nH]nc(N)c2c1=O` [Example 37, 3-amino-7-(5-(4,4-difluoro-1-hydroxycyclohexyl)-1-methyl-1H-pyrazol-3-yl)-5-((2S)-3-methylbutan-2-yl)-1,5-dihydro-4H-pyrazolo[4,3-c]pyridin-4-one], the inhibition at 1 µM at JAK1 is 98%; at JAK2 it was 99%; at JAK3, 100%; at TYK2 it was 99%.
In the case of `Cc1cc(-c2cn(C(C3CC3)C3CC3)c(=O)c3c(N)n[nH]c23)nn1C` [Example 173, 3-amino-5-(dicyclopropylmethyl)-7-(1,5-dimethyl-1H-pyrazol-3-yl)-1,5-dihydro-4H-pyrazolo[4,3-c]pyridin-4-one], the inhibition at 1 µM is 98% at JAK1, 96% at JAK2, 99% on JAK3 and 98% on TYK2.
Take `CN1CCN(c2cc(-c3cn(C(C4CC4)C4CC4)c(=O)c4c(N)n[nH]c34)nn2C)CC1` [Example 149, 3-amino-5-(dicyclopropylmethyl)-7-(1-methyl-5-(4-methylpiperazin-1-yl)-1H-pyrazol-3-yl)-1,5-dihydro-4H-pyrazolo[4,3-c]pyridin-4-one]: the inhibition at 1 µM at JAK1 came out at 100%; on JAK2 it was 99%; on JAK3, 101%; at TYK2, 106%.
As to `CC(C)[C@H](C)n1cc(-c2cc(N3CCS(=O)(=O)CC3)n(CC(F)(F)F)n2)c2[nH]nc(N)c2c1=O` [Example 29, 3-amino-7-(5-(1,1-dioxidothiomorpholin-4-yl)-1-(2,2,2-trifluoroethyl)-1H-pyrazol-3-yl)-5-((2S)-3-methylbutan-2-yl)-1,5-dihydro-4H-pyrazolo[4,3-c]pyridin-4-one], the inhibition at 1 µM stood at 47% on JAK1, 49% at JAK2, 67% on JAK3 and 93% at TYK2.
The like results for `CC(C1CC1)n1cc(-c2cc(N3CCOCC3)n(C)n2)c2[nH]nc(N)c2c1=O` (racemic) [Example 4, 3-amino-5-(1-cyclopropylethyl)-7-(1-methyl-5-(morpholin-4-yl)-1H-pyrazol-3-yl)-1,5-dihydro-4H-pyrazolo[4,3-c]pyridin-4-one] were, in that order, 99%, 99%, 100% and 99%.
As to `CC(C)[C@H](C)n1cc(-c2cc(N3CCOC(C)(C)C3)n(C)n2)c2[nH]nc(N)c2c1=O` [Example 30, 3-amino-7-(5-(2,2-dimethylmorpholin-4-yl)-1-methyl-1H-pyrazol-3-yl)-5-((2S)-3-methylbutan-2-yl)-1,5-dihydro-4H-pyrazolo[4,3-c]pyridin-4-one], the inhibition at 1 µM is 97% on JAK1, 99% at JAK2, 99% at JAK3 and 99% at TYK2.
As for `CC1CCCCC1n1cc(-c2cc(C(C)(C)O)n(C)n2)c2[nH]nc(N)c2c1=O` (stereo not drawn) [Example 118, 3-amino-7-(5-(2-hydroxypropan-2-yl)-1-methyl-1H-pyrazol-3-yl)-5-(2-methylcyclohexyl)-1,5-dihydro-4H-pyrazolo[4,3-c]pyridin-4-one], at JAK1 (1 µM), the “JAK1 enzyme inhibitory activity (%, 1 μM)” value stood at 98%. The “JAK2 enzyme inhibitory activity (%, 1 μM)” value on JAK2 (1 µM) amounted to 97%. Also, the “JAK3 enzyme inhibitory activity (%, 1 μM)” value on JAK3 (1 µM) was 99%. For the same compound, at TYK2 (1 µM), the “TYK2 enzyme inhibitory activity (%, 1 μM)” value was found to be 100%.
`Cn1nc(-c2cn(C(C3CC3)C3CC3)c(=O)c3c(N)n[nH]c23)cc1N1CCC[C@H]1CO` [Example 168, 3-amino-5-(dicyclopropylmethyl)-7-(5-((2S)-2-(hydroxymethyl)pyrrolidin-1-yl)-1-methyl-1H-pyrazol-3-yl)-1,5-dihydro-4H-pyrazolo[4,3-c]pyridin-4-one]: the inhibition at 1 µM at JAK1 is 98%; on JAK2 it was 94%; on JAK3, 100%; at TYK2 it was 101%.
`COC1(c2cc(-c3cn(-c4c(F)cccc4F)c(=O)c4c(N)n[nH]c34)nn2C)CCS(=O)(=O)CC1` [Example 129, 3-amino-5-(2,6-difluorophenyl)-7-(5-(4-methoxy-1,1-dioxidotetrahydro-2H-thiopyran-4-yl)-1-methyl-1H-pyrazol-3-yl)-1,5-dihydro-4H-pyrazolo[4,3-c]pyridin-4-one]: the inhibition at 1 µM at JAK1 amounted to 97%; at JAK2, 99%; on JAK3, 99%; at TYK2, 100%.
